Test results taken from a polymer gas permeability compilation.

| CH4 permeability [Barrer] | CO2 permeability [Barrer] | H2 permeability [Barrer] | N2 permeability [Barrer] | O2 permeability [Barrer] | SMILES |
| --- | --- | --- | --- | --- | --- |
| 1.16 | 23.8 | 41.3 | 1.06 | 5.6 | *Oc1ccc(C2(c3ccc(OC(=O)c4cc(C(*)=O)cc(C(C)(C)C)c4)cc3)OC(=O)c3ccccc32)cc1 (repeat unit) |
| – | 4.96 | – | 0.23 | 1.16 | *Nc1ccc(C(=O)c2ccc(NC(=O)c3cc(C(*)=O)cc(C(C)(C)C)c3)cc2)cc1 (repeat unit) |
| 3300 | 7200 | 3900 | 1300 | 2100 | *C(=C(*)c1cccc(O[Si](C)(C)C(C)(C)C)c1)c1ccc(C(C)(C)C)cc1 (repeat unit) |
| 0.94 | 25.5 | 63 | 1.2 | 6 | *Oc1c(C)cc(-c2cc(C)c(Oc3ccc(S(=O)(=O)c4ccc(*)cc4)cc3)c(C)c2C)c(C)c1C (repeat unit) |
| 0.052 | 1.5 | 8 | 0.066 | 0.39 | *Oc1cccc(C(C)(C)c2ccc(Oc3ccc(S(=O)(=O)c4ccc(*)cc4)cc3)cc2)c1 (repeat unit) |
| 0.024 | 1 | 3.8 | 0.029 | 0.2 | *Oc1ccc(Oc2ccc(C(=O)c3ccc(*)cc3)cc2)c(-c2cccc(C)c2)c1 (repeat unit) |
| 1.43 | 24.2 | 41.9 | 1.18 | 5.95 | *Oc1ccc(C(C)(C)c2ccc(OC(=O)c3cc(C(*)=O)cc(C(C)(C)C)c3)cc2)cc1 (repeat unit) |
| 0.331 | 7.54 | 13 | 0.3 | 1.48 | *Oc1ccc(C(C)(C)c2ccc(OC(*)=O)cc2)cc1 (repeat unit) |
| 1.27 | 31.8 | – | 1.21 | 5.8 | *Oc1ccc(S(=O)(=O)c2ccc(Oc3c(C)cc(-c4cc(C)c(*)c(C)c4)cc3C)cc2)cc1 (repeat unit) |
| – | 340 | – | 11 | 45 | *C(=C(*)c1ccc(S(=O)(=O)O)cc1)c1ccc(C(C)(C)C)cc1 (repeat unit) |
| 0.305 | 5.16 | 18.9 | 0.273 | 1.64 | *Oc1ccc(C(C)(C)c2ccc(OC(=O)c3cccc(C(*)=O)c3)c(C(C)C)c2)cc1C(C)C (repeat unit) |
| 0.24 | 8.4 | 23 | 0.4 | 2.2 | *Nc1cccc(NC(=O)c2ccc(C(c3ccc(C(*)=O)cc3)(C(F)(F)F)C(F)(F)F)cc2)c1 (repeat unit) |
| 34 | 470 | 470 | 41 | 120 | *c1ccc(-c2ccc(C(*)(C(F)(F)F)C(F)(F)F)cc2)cc1 (repeat unit) |
| 10100 | 16900 | 10800 | 4100 | 5700 | *C(=C(*)c1ccc2c(c1)C(C)(C)CC2(C)C)c1ccc(C)cc1 (repeat unit) |

Continued, molecule first:

| SMILES | CH4 permeability [Barrer] | CO2 permeability [Barrer] | H2 permeability [Barrer] | N2 permeability [Barrer] | O2 permeability [Barrer] |
| --- | --- | --- | --- | --- | --- |
| *OC(=O)Oc1ccc(C2(c3ccc(*)cc3)CC3CCC2C3)cc1 (repeat unit) | 0.48 | 9.1 | 22 | 0.47 | 2.4 |
| *Oc1ccc(C(C)(C)c2ccc(Oc3ccc4c(c3)C(=O)N(c3ccc(N5C(=O)c6ccc(*)cc6C5=O)cc3)C4=O)cc2)cc1 (repeat unit) | 0.04 | 1.8 | – | – | 0.4 |
| *Oc1ccc(Oc2ccc(C(=O)c3ccc(*)cc3)cc2)c(-c2cc(C(F)(F)F)cc(C(F)(F)F)c2)c1 (repeat unit) | 0.38 | 8.7 | 21 | 0.54 | 3.3 |
| *c1ccc(Oc2ccc(C3(c4ccc(Oc5ccc(N6C(=O)c7ccc(C(c8ccc9c(c8)C(=O)N(*)C9=O)(C(F)(F)F)C(F)(F)F)cc7C6=O)c(C)c5)cc4)OC(=O)c4ccccc43)cc2)cc1C (repeat unit) | 0.56 | 21.4 | – | 1.1 | 5.71 |
| *c1cccc(S(=O)(=O)c2cccc(N3C(=O)c4ccc(C(c5ccc6c(c5)C(=O)N(*)C6=O)(C(F)(F)F)C(F)(F)F)cc4C3=O)c2)c1 (repeat unit) | 0.0578 | 2.34 | – | 0.095 | 0.73 |
| *Oc1c(Br)cc(C(C)(C)c2cc(Br)c(OC(=O)c3cccc(C(*)=O)c3)c(Br)c2)cc1Br (repeat unit) | 0.142 | 4.93 | 18.1 | 0.179 | 1.29 |
| *c1cc2c(cc1O)C1(CC2(C)C)CC(C)(C)c2cc(N3C(=O)C4C(C3=O)C3(Br)C(Br)=C(Br)C4(Br)C4C(=O)N(*)C(=O)C43)c(O)cc21 (repeat unit) | 4.9 | 138 | 274 | 5.3 | 31.2 |
| *c1ccc(Oc2ccc(C(c3ccc(Oc4ccc(N5C(=O)c6ccc(C(=O)c7ccc8c(c7)C(=O)N(*)C8=O)cc6C5=O)cc4)cc3)(C(F)(F)F)C(F)(F)F)cc2)cc1 (repeat unit) | 0.105 | 4.67 | 16.1 | 0.195 | 1.14 |
| *Oc1ccc(C2(c3ccc(Oc4ccc(S(=O)(=O)c5ccc(*)cc5)cc4)cc3)OC(=O)c3ccccc32)cc1 (repeat unit) | 0.143 | 5.74 | 10.1 | 0.17 | 1.2 |
| *N=P(*)(C)c1ccccc1 (repeat unit) | 0.7 | 6.5 | – | 0.6 | 1.8 |
| *c1cccc(N2C(=O)c3ccc(Oc4ccc5c(c4)C(=O)N(*)C5=O)cc3C2=O)c1 (repeat unit) | 0.0064 | 0.301 | – | 0.012 | 0.081 |
| *CC(C#N)(C#N)CC(*)OC(C)=O (repeat unit) | – | – | – | 0.0138 | 0.16 |
| *CC(*)(F)F (repeat unit) | 0.02 | 0.517 | 0.538 | 0.0223 | 0.0826 |
| *C1C2CC(C1*)C([Si](C)(C)C)C2 (repeat unit) | 1090 | – | 6700 | – | 1700 |
| *c1ccc(Oc2ccc(N3C(=O)c4ccc(Oc5ccc(C(c6ccc(Oc7ccc8c(c7)C(=O)N(*)C8=O)cc6)(C(F)(F)F)C(F)(F)F)cc5)cc4C3=O)cc2)cc1 (repeat unit) | – | – | 8.95 | 0.084 | 0.55 |
| *c1ccc(-c2ccc(Oc3ccc(C4(c5ccc(Oc6ccc(-c7ccc(N8C(=O)c9ccc(Oc%10ccc(C(C)(C)c%11ccc(Oc%12ccc%13c(c%12)C(=O)N(*)C%13=O)cc%11)cc%10)cc9C8=O)cc7)cc6C(F)(F)F)cc5)c5ccccc5C(=O)N4c4ccccc4)cc3)c(C(F)(F)F)c2)cc1 (repeat unit) | 0.84 | 16.6 | – | 0.95 | 4.25 |
| *OC1OC(COC(=O)NC(C)(C)C)C(*)C(OCC)C1OCC (repeat unit) | 9.45 | 94.5 | 73 | 4.3 | 16 |
| *[Si](C)(C)c1ccc([Si](*)(C)C)cc1 (repeat unit) | – | – | – | 3.39 | 14.1 |
| *Oc1cc(C)c(C(c2cc(C(C)C)c(Oc3ccc(S(=O)(=O)c4ccc(*)cc4)cc3)cc2C)c2ccccc2C(=O)O)cc1C(C)C (repeat unit) | 1.13 | 25.1 | 49.6 | 0.757 | 4.53 |
| *Oc1ccc(C(=O)c2cccc(-c3cccc(C(=O)c4ccc(Oc5ccc(C(c6ccc(*)cc6)(C(F)(F)F)C(F)(F)F)cc5)cc4)c3)c2)cc1 (repeat unit) | 0.058 | 1.95 | – | 0.0792 | 0.61 |
| *c1ccc(N(c2ccc(OC)cc2)c2ccc(N3C(=O)c4ccc(C(c5ccc6c(c5)C(=O)N(*)C6=O)(C(F)(F)F)C(F)(F)F)cc4C3=O)cc2)cc1 (repeat unit) | 0.5 | 16.8 | – | 0.89 | 4.28 |
| *c1ccc(-c2nnc(-c3cccc(-c4nnc(*)n4-c4ccccc4)c3)n2-c2ccccc2)cc1 (repeat unit) | 0.09 | 5.2 | – | 0.14 | 1.16 |
| *CC(*)OC1CC2CCC1C2 (repeat unit) | – | 25 | – | 0.96 | 3.55 |
| *Oc1ccc(Cc2ccc(Oc3ccc(S(=O)(=O)c4ccc(*)cc4)cc3)cc2)cc1 (repeat unit) | 0.19 | 4.5 | 10.4 | 0.2 | 1.1 |
| *c1c(C)c2c(c(N3C(=O)c4ccc(Oc5ccc6c(c5)C(=O)N(*)C6=O)cc4C3=O)c1C)C(C)(C)CC2 (repeat unit) | 10.3 | 161 | – | 10.3 | 43.9 |
| *c1ccc(C(c2ccc(-c3nnc(*)o3)cc2)(C(F)(F)F)C(F)(F)F)cc1 (repeat unit) | 4.55 | 123 | – | 6.1 | – |
| *C=C(*)c1cccc(O[Si](C)(C)C(C)(C)C)c1 (repeat unit) | 12 | 58 | 64 | 7.6 | 17 |
| *CC(*)C (repeat unit) | – | 9.2 | – | 0.5 | 1.41 |
